Reference: patent US12565485B2, “Solid forms of 1-((S)-4-((R)-7-(6-amino-4-methyl-3-(trifluoromethyl)pyridin-2-yl)-6-chloro-8-fluoro-2-(((s)-1-methylpyrrolidin-2-yl)methoxy)quinazolin-4-yl)-3-methylpiperazin-1-yl)prop-2-en-1-one” (Genentech, Inc., priority 2022, dated 2026)
Each block holds one compound with its values, some of them ahead of it.

Tests used:
[1] = Moisture absorption observed during XRPD test; type: physicochemical
Method: Compound E Form A was obtained from acetone system. Limited solids were observed after stirring at 5° C. […] The suspension was transferred to −20° C., but limited solids were still observed. Anti-solvent (n-heptane) was added and the sample was transferred to 5° C. However, gel was obtained.

[2] = VH-XRPD analysis / transitions of forms at varying relative humidity; type: physicochemical
Excerpt: FIG. 19. The sample then reverts to the original form upon reaching 30% RH. […] Transitions of Forms of Compound A at varying RH.

[3] = Overall summary of solid form stability; conditions: compared with the other identified salt forms
Excerpt: Overall Summary. […] The amorphous form is considered for development purposes to be unstable for further development.

[4] = Slurry conversion experiments (XRPD of isolated solids); type: physicochemical
Method: Slurry conversion experiments were conducted at RT in different solvent systems. About 15˜20 mg of freebase starting material (Compound 1) was suspended in 0.5 mL of solvent in an HPLC vial. Solids were isolated for XRPD analysis after magnetically stirring at RT.
Slurry at 5°. Slurry conversion experiments were conducted at 5° C. in different solvent systems. About 15˜20 mg of freebase starting material (Compound 1) was suspended in 0.5 mL of solvent in an HPLC vial. Solids were isolated for XRPD analysis after magnetically stirring at 5° C.
Slurry at 50°. Slurry conversion experiments were conducted at 50° C. in different solvent systems. About 20 mg of freebase starting material (Compound 1) was suspended in 0.5 mL of solvent in an HPLC vial. Solids were isolated for XRPD analysis after magnetical stirring at 50° C.
Slurry at RT for Compound A. Slurry conversion experiments were conducted at RT in different solvent systems. […] Solids were isolated for XRPD analysis after magnetic stirring at RT.
Slurry at 50° for Compound A. Slurry conversion experiments were conducted at 50° C. in different solvent systems. […] Solids were isolated for XRPD analysis after magnetic stirring at 50° C.

Slow evaporation = type: physicochemical
Method: Slow evaporation. Slow evaporation experiments were performed under 10 conditions. Briefly, about 15˜20 mg of freebase starting material (810935-01-A) was dissolved in 0.5˜1.0 mL of solvent in a 3-mL glass vial.
Slow evaporation Compound A. Slow evaporation experiments were performed under seven conditions.

Liquid vapor diffusion = type: physicochemical
Method: (§1) Liquid vapor diffusion. Liquid vapor diffusion experiments were conducted in different solvent systems. […] This solution was then placed into a 20-mL vial with 3 mL of corresponding anti-solvent. The 20-mL vial was sealed with a cap and kept at RT allowing sufficient time for organic vapor to interact with the solution. The precipitates were isolated for XRPD analysis.
as §1, with “diffusion Compound A.” for “diffusion.”

Anti-solvent addition = type: physicochemical
Method: Anti-solvent addition. A total of 12 anti-solvent addition experiments were carried out. […] The obtained precipitate was isolated for XRPD analysis.
Anti-solvent addition Compound A. A total of 14 anti-solvent addition experiments were carried out. […] The obtained precipitate was isolated for XRPD analysis.

[5] = Summary of polymorph screening experiments, total over all methods; type: physicochemical
Method: A total of 64 polymorph screening experiments were performed for freebase Compound 1 using the sample received as starting material through different crystallization methods. As a result, Form A was obtained from polymorph screening.
Results summarized in Table 40 were used to guide the solvent selection in polymorph screening of adipate.

Slow cooling = type: physicochemical; conditions: adipate polymorph screening summary; Slow Cooling
Method: Slow cooling Compound A. Slow cooling experiments were conducted in four solvent systems. […] The suspension was then heated to 50° C., equilibrated for about 2 hr and filtered to a new vial using a seal membrane (PTFE, pore size of 0.45 μm). Filtrates were slowly cooled down to 5° C. at a rate of 0.1° C./min. The obtained solids were kept isothermal at 5° C. before isolation for XRPD analysis.

Solid vapor diffusion = type: physicochemical; conditions: adipate polymorph screening summary; Solid Vapor Diffusion
Method: Solid vapor diffusion Compound A. Solid vapor diffusion experiments were conducted using 12 different solvents. […] The 20-mL vial was sealed with a cap and kept at RT allowing solvent vapor to interact with the sample.

Structure (SMILES): C=CC(=O)N1CCN(c2nc(OC[C@@H]3CCCN3C)nc3c(F)c(-c4nc(N)cc(C)c4C(F)(F)F)c(Cl)cc23)[C@@H](C)C1.CS(=O)(=O)O (atropisomer, axis not shown) [Compound E Form A]
Moisture behaviour of the sample during XRPD test [1]: tended to absorb moisture and turn to liquid

RH at which sample reverts to the original form (VH-XRPD) [2]: 30 % RH
RH at which small changes appear in VH-XRPD ([2]; changes remain up until 80% RH): 44-46 % RH
Stability of the form for further development [3]: most stable form
Structure (SMILES): C=CC(=O)N1CCN(c2nc(OC[C@@H]3CCCN3C)nc3c(F)c(-c4nc(N)cc(C)c4C(F)(F)F)c(Cl)cc23)[C@@H](C)C1 [Compound A]

Slurry conversion result (XRPD form) ([4]; 5° C., different solvent systems): Form A and amorphous were obtained
Slurry conversion result (XRPD form) ([4]; 50° C., H2O): Amorphous
Slurry conversion result (XRPD form) ([4]; 50° C., different solvent systems): amorphous was obtained
Slurry conversion result (XRPD form) ([4]; 50° C., n-Heptane): Amorphous
Slurry conversion result (XRPD form) ([4]; RT, different solvent systems): Form A and amorphous were obtained
Result ([4]; freebase polymorph screening summary, Slurry at RT/5 °C/50 °C): Form A, amorphous, gel,
Result ([4]; freebase slurry at 5° C., 2-MeTHF/n-Heptane, 1:3): Gel
Result ([4]; freebase slurry at 5° C., ACN): Form A
Result ([4]; freebase slurry at 5° C., DMAc/n-Heptane, 1:3): Gel
Result ([4]; freebase slurry at 5° C., DMF/H2O, 1:3): Amorphous
Result ([4]; freebase slurry at 5° C., Ethyl lactate/H2O, 1:3): Gel
Result ([4]; freebase slurry at 5° C., IPAc/n-Heptane, 1:3): Amorphous
Result ([4]; freebase slurry at 5° C., MIBK/n-Heptane, 1:3): Gel
Result ([4]; freebase slurry at 5° C., NMP/H2O, 1:4): Amorphous
Result ([4]; freebase slurry at 5° C., Xylene/n-Heptane, 1:3): Amorphous
Result ([4]; freebase slurry at RT, 1,4-Dioxane/H2O, 1:4): Amorphous
Result ([4]; freebase slurry at RT, ACN): Form A
Result ([4]; freebase slurry at RT, ACN/H2O, 1:1): Form A (Low crystallinity)
Result ([4]; freebase slurry at RT, Acetone/H2O, 1:4): Form A
Result ([4]; freebase slurry at RT, Anisole/n-Heptane, 1:4): Gel
Result ([4]; freebase slurry at RT, Benzyl alcohol/n-Heptane, 1:4): Gel
Result ([4]; freebase slurry at RT, CPME/Cyclohexane, 1:4): Amorphous
Result ([4]; freebase slurry at RT, DCM/n-Heptane, 1:4): Form A
Result ([4]; freebase slurry at RT, EtOAc/Cyclohexane, 1:4): Amorphous
Result ([4]; freebase slurry at RT, EtOH): Form A
Result ([4]; freebase slurry at RT, EtOH/H2O, 1:1): Form A
Result ([4]; freebase slurry at RT, IPA): Form A (Low crystallinity)
Result ([4]; freebase slurry at RT, MEK/Cyclohexane, 1:4): Amorphous
Result ([4]; freebase slurry at RT, MTBE): Gel
Result ([4]; freebase slurry at RT, THF/n-Heptane, 1:4): Form A
Result ([4]; freebase slurry at RT, Toluene/Cyclohexane, 1:4): Amorphous
Result (Slow evaporation; freebase polymorph screening summary, Slow Evaporation): Form A, amorphous, gel
Result (Slow evaporation; freebase, evaporation at RT, 2-MeTHF): Gel
Result (Slow evaporation; freebase, evaporation at RT, ACN): Form A
Result (Slow evaporation; freebase, evaporation at RT, Acetone): Form A
Result (Slow evaporation; freebase, evaporation at RT, DCM): Form A (Low crystallinity)
Result (Slow evaporation; freebase, evaporation at RT, EtOAc): Amorphous
Result (Slow evaporation; freebase, evaporation at RT, EtOH): Form A
Result (Slow evaporation; freebase, evaporation at RT, IPAc): Gel
Result (Slow evaporation; freebase, evaporation at RT, MEK): Amorphous
Result (Slow evaporation; freebase, evaporation at RT, MeOH): Amorphous
Result (Slow evaporation; freebase, evaporation at RT, THF): Amorphous
Result (Liquid vapor diffusion; freebase polymorph screening summary, Liquid Vapor Diffusion): Form A, amorphous, gel, clear
Result (Liquid vapor diffusion; freebase, RT, solvent 1.4-Dioxane, anti-solvent n-Heptane): Gel
Result (Liquid vapor diffusion; freebase, RT, solvent 2-Butanol, anti-solvent n-Heptane): Gel
Result (Liquid vapor diffusion; freebase, RT, solvent ACN, anti-solvent H2O): Form A
Result (Liquid vapor diffusion; freebase, RT, solvent Acetone, anti-solvent n-Pentane): Form A
Result (Liquid vapor diffusion; freebase, RT, solvent Anisole, anti-solvent n-Pentane): Gel
Result (Liquid vapor diffusion; freebase, RT, solvent CPME, anti-solvent n-Pentane): Gel
Result (Liquid vapor diffusion; freebase, RT, solvent DMF, anti-solvent H2O): Clear solution
Result (Liquid vapor diffusion; freebase, RT, solvent DMSO, anti-solvent H2O): Amorphous
Result (Liquid vapor diffusion; freebase, RT, solvent EtOAc, anti-solvent n-Pentane): Gel
Result (Liquid vapor diffusion; freebase, RT, solvent IPAc, anti-solvent n-Heptane): Amorphous
Result (Liquid vapor diffusion; freebase, RT, solvent THF, anti-solvent H2O): Form A (Low crystallinity)
Result (Liquid vapor diffusion; freebase, RT, solvent Toluene, anti-solvent n-Heptane): Gel
Result (Liquid vapor diffusion; freebase, RT, solvent Xylene, anti-solvent n-Pentane): Gel
Result (Anti-solvent addition; freebase polymorph screening summary, Anti-solvent Addition): Form A, amorphous, gel,
Result (Anti-solvent addition; freebase, solvent 1.4-Dioxane, anti-solvent H2O): Gel
Result (Anti-solvent addition; freebase, solvent ACN, anti-solvent n-Heptane): Form A (Low
Result (Anti-solvent addition; freebase, solvent Acetone, anti-solvent n-Heptane): Form A (Low
Result (Anti-solvent addition; freebase, solvent Anisole, anti-solvent Cyclohexane): Gel
Result (Anti-solvent addition; freebase, solvent CPME, anti-solvent n-Heptane): Amorphous
Result (Anti-solvent addition; freebase, solvent DCM, anti-solvent Cyclohexane): Form A (Low
Result (Anti-solvent addition; freebase, solvent DMSO, anti-solvent H2O): Low crystallinity
Result (Anti-solvent addition; freebase, solvent EtOAc, anti-solvent n-Heptane): Amorphous
Result (Anti-solvent addition; freebase, solvent MEK, anti-solvent Cyclohexane): Gel
Result (Anti-solvent addition; freebase, solvent MeOH, anti-solvent H2O): Amorphous
Result (Anti-solvent addition; freebase, solvent THF, anti-solvent H2O): Form A (Low
Result (Anti-solvent addition; freebase, solvent Toluene, anti-solvent n-Heptane): Amorphous
Result ([5]; freebase polymorph screening summary): Form A, amorphous, gel, clear
Structure (SMILES): C=CC(=O)N1CCN(c2nc(OC[C@@H]3CCCN3C)nc3c(F)c(-c4nc(N)cc(C)c4C(F)(F)F)c(Cl)cc23)[C@@H](C)C1 (atropisomer, axis not shown) [Compound 1, 1-((S)-4-((R)-7-(6-amino-4-methyl-3-(trifluoromethyl)pyridin-2-yl)-6-chloro-8-fluoro-2-(((S)-1-methylpyrrolidin-2-yl)methoxy)quinazolin-4-yl)-3-methylpiperazin-1-yl)prop-2-en-1-one]

Result ([4]; adipate polymorph screening summary, Slurry at RT/50° C.): Compound A Form A, gel, clear
Result (Slow cooling): Compound A Form A
Result (Slow evaporation; adipate polymorph screening summary, Slow Evaporation): Gel, clear
Result (Solid vapor diffusion): Compound A Form A
Result (Liquid vapor diffusion; adipate polymorph screening summary, Liquid Vapor Diffusion): Amorphous, clear, gel
Result (Anti-solvent addition; adipate polymorph screening summary, Anti-solvent Addition): Compound A Form A, B, clear, gel
Result ([5]; adipate polymorph screening summary): Compound A Form A, Compound A Form
Structure (SMILES): C=CC(=O)N1CCN(c2nc(OC[C@@H]3CCCN3C)nc3c(F)c(-c4nc(N)cc(C)c4C(F)(F)F)c(Cl)cc23)[C@@H](C)C1.O=C(O)CCCCC(=O)O [adipate]
